Source: patent US8323917B2, “Method of screening for compounds that inhibit the enzymatic activity of GWT1 gene product” (priority 2002, dated 2012)

What was measured:
[1] = biological target: T1, GWT1 gene product (Gwt1 protein) in membrane fraction (Saccharomyces cerevisiae, UniProt P47026); experiment: acylated GPI detection system (GPI acylation assay, TLC of GlcN-(acyl)PI); assay type: biochemical, S. cerevisiae; settings: UDP-[14C]GlcNAc, TLC/autoradiography, FIGS. 3 and 4
T1 construct: made in house; host or cells: S. cerevisiae Δgwt1 strain carrying the YEp352GAPIIClaIΔSal-GWT1 overexpression plasmid; total membrane fraction
Protocol: Wild-type S. cerevisiae strain, the GWT1 gene-deficient strain Δgwt1, and the strain Δgwt1 into which the GWT1 overexpression plasmid was introduced were each cultured in 100 ml of YPD medium shaken at 24° C., and then harvested in the middle logarithmic growth phase (0D600=1˜3). The fungal cells were washed with TM buffer (50 mM Tris-HCl (pH 7.5) and 2 mM MgCl2), and then suspended in 2 ml of TM buffer+protease inhibitor (1 tablet of Complete™, protease inhibitor, (Roche)/25 ml). 1.5 ml of glass beads was added to the suspension. The mixture was vortexed for 30 seconds, and then placed on ice for 30 seconds. These procedures were repeated ten times to disrupt the fungal cells. The cell homogenate was transferred into a new tube, and centrifuged at 1000 g at 4° C. for five minutes to precipitate the glass beads and undisrupted fungal cells. The supernatant was transferred to another tube, and centrifuged at 13 000g at 4° C. for 20 minutes to precipitate the membrane fraction comprising organelles (total membrane fraction). The resulting precipitate was used as the membrane fraction.
The membrane fraction preparation (300 μg protein) was diluted with a buffer consisting of 50 mM Tris-HCl (pH7.5), 2 mM MgCl2, 2 mM MnCl2, 1 mM ATP, 1 mM Coenzyme A, 21 μg/ml tunicamycin, 10 μM nikkomycin Z, and 0.5 mM Dithiothreitol. The solution was adjusted to a total of 140 μl for use as a reaction solution. After incubating the solution at 24° C. for 15 minutes, 15 μCi UDP-[^14C]GlcNAc was added to the tube and then incubated at 24° C. for another one hour. 1 ml of chloroform:methanol (1:2) was added to the solution and stirred to stop the reaction. Then, lipid was extracted from the solution, dried, and desalted by butanol extraction. Acylated GPI (GlcN-(acyl)PI), non-acylated GPI (GlcN-PI), and GPI which was neither acylated nor deacylated (GlcNAc-PI) were separated by thin-layer chromatography (HCl3/CH3OH/1 M NH4OH (10:10:3)). Each spot was detected by autoradiography. […]

GWT1 gene products = settings: reporter system reflecting the activity of the GWT1 gene products; cited from earlier work

T1 sequence (P47026 whole entry): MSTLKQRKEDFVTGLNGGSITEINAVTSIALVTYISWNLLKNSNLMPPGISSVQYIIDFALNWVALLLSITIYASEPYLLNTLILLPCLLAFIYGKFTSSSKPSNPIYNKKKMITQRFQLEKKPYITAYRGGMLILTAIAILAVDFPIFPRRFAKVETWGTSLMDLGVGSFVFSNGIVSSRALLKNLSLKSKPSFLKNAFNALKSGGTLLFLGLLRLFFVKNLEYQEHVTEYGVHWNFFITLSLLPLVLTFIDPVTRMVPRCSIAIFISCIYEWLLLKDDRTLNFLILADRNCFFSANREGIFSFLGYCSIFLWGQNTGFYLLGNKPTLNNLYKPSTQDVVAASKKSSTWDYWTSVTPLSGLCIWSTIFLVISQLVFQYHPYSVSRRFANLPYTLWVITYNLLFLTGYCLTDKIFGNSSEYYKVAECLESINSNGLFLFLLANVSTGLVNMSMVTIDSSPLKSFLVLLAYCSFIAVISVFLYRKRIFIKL

SMILES	spot intensity of acylated GPI (GlcN-(acyl)PI) [1]	inhibitory activity IC50 (Table 1 in WO 02/04626) (GWT1 gene products) [mg/L]
CCCCc1ccc(Cc2nccc3ccccc23)cc1 [Example B2, 1-(4-butylbenzyl)isoquinoline]	dose-dependent decrease	–
CC(=O)N(C)CCCc1ccc(Cc2nccc3ccccc23)cc1 [Example B73, N-(3-(4-(1-isoquinolylmethyl)phenyl)propyl)-N-methylacetamide]	not observed to decrease	50
CCCCc1ccc(Cc2nccc3ccccc23)c(O)c1 [Example B85, 5-butyl-2-(1-isoquinolylmethyl)phenol]	dose-dependent decrease	–
